We go through 15 compounds from PubChem BioAssay AID328 (DTP/NCI, 2004).

“And” between values parts separate entries of the source, which are not always exact repeats. Equal values may be shown once. Toxic doses and inconclusive results are not listed.

The test system of this experiment is BDF1 mice, P388 leukemia ip, median survival T/C. The experiment is described as follows: NCI In Vivo Anticancer Drug Screen. Data for tumor model P388 Leukemia (intraperitoneal) in B6D2F1 (BDF1) mice. As to conditions: endpoint: median survival time, higher = longer survival. In short, it runs like this: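 Reported as T/C, where T is the survival measurement in dosed animals and C the same measurement in vehicle controls.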

Where [1] appears, read: dose: 100.0 mg/kg/injection, schedule: Q01DX009 (ip), vehicle: saline with Tween-80.
Setting [2] is: dose: 100.0 mg/kg/injection, schedule: Q04DX003 (ip), vehicle: saline sonified.
Where [3] appears, read: dose: 1.5 mg/kg/injection, schedule: Q01DX009 (ip), vehicle: saline.
The mark [4] stands for this setting: dose: 200.0 mg/kg/injection, schedule: Q04DX003 (ip), vehicle: saline sonified.
[5] abbreviates: dose: 400.0 mg/kg/injection, schedule: Q04DX003 (ip), vehicle: saline sonified.
Setting [6] is: dose: 200.0 mg/kg/injection, schedule: Q01DX009 (ip), vehicle: saline with Tween-80.
Setting [7] is: dose: 100.0 mg/kg/injection, schedule: Q04DX003 (ip), vehicle: saline with Tween-80.
[8] abbreviates: dose: 200.0 mg/kg/injection, schedule: Q04DX003 (ip), vehicle: saline with Tween-80.
The mark [9] stands for this setting: dose: 50.0 mg/kg/injection, schedule: Q01DX009 (ip), vehicle: saline with Tween-80.

On to `Nc1cc(C(=O)Nc2ccc(CCNC3=NCCN3)cc2)ccc1C(=O)Nc1ccc(CCNC2=NCCN2)cc1`, for which the T/C by setting is: (dose: 2.6 mg/kg/injection, schedule: Q01DX009 (ip), vehicle: saline with Tween-80) 123 % of control; (dose: 5.0 mg/kg/injection, schedule: Q04DX003 (ip), vehicle: saline with Tween-80) 109 % of control and 113 % of control; (dose: 6.0 mg/kg/injection, schedule: Q01DX009 (ip), vehicle: saline with Tween-80) 157 % of control; (dose: 6.7 mg/kg/injection, schedule: Q01DX009 (ip), vehicle: saline with Tween-80) 157 % of control; (dose: 8.0 mg/kg/injection, schedule: Q04DX003 (ip), vehicle: saline with Tween-80) 118 % of control; (dose: 10.0 mg/kg/injection, schedule: Q01DX009 (ip), vehicle: saline with Tween-80) 192 % of control and 215 % of control. The T/C is, setting by setting: (dose: 10.0 mg/kg/injection, schedule: Q04DX003 (ip), vehicle: saline with Tween-80) 109 % of control; (dose: 12.0 mg/kg/injection, schedule: Q04DX003 (ip), vehicle: saline with Tween-80) 118 % of control; (dose: 15.0 mg/kg/injection, schedule: Q01DX009 (ip), vehicle: saline with Tween-80) 230 % of control; (dose: 18.0 mg/kg/injection, schedule: Q04DX003 (ip), vehicle: saline with Tween-80) 150 % of control and 163 % of control; (dose: 20.0 mg/kg/injection, schedule: Q01DX009 (ip), vehicle: saline with Tween-80) 230 % of control; (dose: 20.0 mg/kg/injection, schedule: Q04DX003 (ip), vehicle: saline with Tween-80) 163 % of control. The T/C is, setting by setting: (dose: 26.0 mg/kg/injection, schedule: Q04DX003 (ip), vehicle: saline with Tween-80) 150 % of control and 177 % of control; (dose: 40.0 mg/kg/injection, schedule: Q04DX003 (ip), vehicle: saline with Tween-80) 250 % of control and 200 % of control; (dose: 60.0 mg/kg/injection, schedule: Q04DX003 (ip), vehicle: saline with Tween-80) 162 % of control.

Consider `CSC(=S)N/N=C(\C)C1CCCC[N-]1.[I][Zn][I]` (stereo unspecified), for which the T/C by setting is: (dose: 12.5 mg/kg/injection, schedule: Q01DX009 (ip), vehicle: saline with Tween-80) 109 % of control and 110 % of control and 115 % of control; (dose: 25.0 mg/kg/injection, schedule: Q01DX009 (ip), vehicle: saline with Tween-80) 109 % of control (2×) and 117 % of control; under setting [1], 118 % of control.

As for `CC1CC(C)(C)CC2CC(C(=O)O)(C(=O)O)CC12` (stereo unspecified), the T/C is, setting by setting: (dose: 25.0 mg/kg/injection, schedule: Q04DX003 (ip), vehicle: saline sonified) 110 % of control; (dose: 50.0 mg/kg/injection, schedule: Q04DX003 (ip), vehicle: saline sonified) 100 % of control; under setting [2], 100 % of control.

`CC[N+](C)(CC)CCC[n+]1c(-c2ccccc2)c2cc(N)ccc2c2ccc(N)cc21`: the T/C is, setting by setting: under setting [3], 107 % of control; (dose: 3.0 mg/kg/injection, schedule: Q01DX009 (ip), vehicle: saline) 100 % of control; (dose: 3.12 mg/kg/injection, schedule: Q04DX003 (ip), vehicle: saline) 100 % of control; (dose: 6.25 mg/kg/injection, schedule: Q04DX003 (ip), vehicle: saline) 100 % of control.

For `CCN(CC)c1ccc(/C=C2/C=Cc3ccccc32)cc1`, the T/C by setting is: under setting [2], 95 % of control; under setting [4], 100 % of control; under setting [5], 100 % of control.

For the compound `ClC1=C(Cl)C2(Cl)C3(Cl)C(Cl)=C(Cl)C(Cl)(C3c3ccccc3)C2(Cl)C1c1ccccc1` (stereo unspecified), the T/C is 95 % of control under setting [1]; 100 % of control under setting [2]; 95 % of control under setting [6]; 104 % of control under setting [4]; 95 % of control (dose: 400.0 mg/kg/injection, schedule: Q01DX009 (ip), vehicle: saline with Tween-80); 90 % of control under setting [5].

For the compound `O=C(NC(=S)Nc1ccccc1C(=O)O)c1ccccc1`, the T/C by setting is: (dose: 50.0 mg/kg/injection, schedule: Q04DX003 (ip), vehicle: saline with Tween-80) 104 % of control; under setting [7], 100 % of control; under setting [8], 90 % of control.

As to `Cc1ccc(S(=O)(=O)[O][Pb]([CH3])([CH3])[CH3])cc1`, the T/C under setting [3] is 103 % of control.

`O=Cc1ccc(OC(=O)Nc2ccccc2)cc1`: the T/C under setting [7] was 113 % of control; the T/C under setting [8] is 122 % of control; the T/C (dose: 400.0 mg/kg/injection, schedule: Q04DX003 (ip), vehicle: saline with Tween-80) was 86 % of control.

As for `O=C1CC2C3Nc4ccccc4C3CCN2C2=C1CC(OC(=O)c1ccccc1)CC2` (stereo unspecified), the T/C runs as follows: under setting [9], 104 % of control; under setting [1], 104 % of control; under setting [6], 86 % of control.

For `CCCCN(C)C(=S)S[Te](SC(=S)N(C)CCCC)(SC(=S)N(C)CCCC)SC(=S)N(C)CCCC`, the T/C is, setting by setting: (dose: 45.0 mg/kg/injection, schedule: Q01DX010 (ip), vehicle: carboxymethylcellulose (CMC)) 100 % of control; (dose: 90.0 mg/kg/injection, schedule: Q01DX010 (ip), vehicle: carboxymethylcellulose (CMC)) 105 % of control; (dose: 180.0 mg/kg/injection, schedule: Q01DX010 (ip), vehicle: carboxymethylcellulose (CMC)) 115 % of control; (dose: 360.0 mg/kg/injection, schedule: Q01DX010 (ip), vehicle: carboxymethylcellulose (CMC)) 110 % of control.

`Cc1ccc(Sc2cccc3c(C)c4cccc5c4c(c23)C[S+]5c2ccc(C)cc2)cc1` (stereo unspecified): the T/C (dose: 1.5 mg/kg/injection, schedule: Q04DX003 (ip), vehicle: saline with Tween-80) was 100 % of control; the T/C (dose: 3.0 mg/kg/injection, schedule: Q04DX003 (ip), vehicle: saline with Tween-80) is 104 % of control; the T/C (dose: 6.0 mg/kg/injection, schedule: Q04DX003 (ip), vehicle: saline with Tween-80) is 100 % of control.

Consider `COc1cccc2c1C(=O)c1c(O)c3c(c(O)c1C2=O)C[C@@](O)(/C(C)=N/NC(=O)c1cccc([N+](=O)[O-])c1)C[C@@H]3OC1CC(N)C(O)C(C)O1` (stereo partly specified), for which the T/C was 152 % of control (dose: 0.25 mg/kg/injection, schedule: Q01DX009 (ip), vehicle: water); 163 % of control (dose: 0.5 mg/kg/injection, schedule: Q01DX009 (ip), vehicle: water); 166 % of control and 191 % of control (dose: 1.0 mg/kg/injection, schedule: Q01DX009 (ip), vehicle: water); 156 % of control and 214 % of control (dose: 2.0 mg/kg/injection, schedule: Q01DX009 (ip), vehicle: water); 244 % of control and 184 % of control (dose: 4.0 mg/kg/injection, schedule: Q01DX009 (ip), vehicle: water); 169 % of control (dose: 8.0 mg/kg/injection, schedule: Q01DX009 (ip), vehicle: water).

Take `CC(O)c1ccc(-c2ccccc2)cc1` (stereo unspecified): the T/C reads like this: (dose: 100.0 mg/kg/injection, schedule: Q01DX009 (ip), vehicle: Klucel (hydroxypropylcellulose) (HPC)) 120 % of control; (dose: 100.0 mg/kg/injection, schedule: Q04DX003 (ip), vehicle: Klucel (hydroxypropylcellulose) (HPC)) 95 % of control; (dose: 200.0 mg/kg/injection, schedule: Q01DX009 (ip), vehicle: Klucel (hydroxypropylcellulose) (HPC)) 105 % of control; (dose: 200.0 mg/kg/injection, schedule: Q04DX003 (ip), vehicle: Klucel (hydroxypropylcellulose) (HPC)) 100 % of control; (dose: 400.0 mg/kg/injection, schedule: Q01DX009 (ip), vehicle: Klucel (hydroxypropylcellulose) (HPC)) 110 % of control; (dose: 400.0 mg/kg/injection, schedule: Q04DX003 (ip), vehicle: Klucel (hydroxypropylcellulose) (HPC)) 100 % of control.

Consider `NC1=NS(=O)(=O)N=C(N)C1=NNc1cccc(Cl)c1`, for which the T/C reads like this: under setting [9], 94 % of control; under setting [1], 103 % of control; under setting [6], 92 % of control.
